What was measured:
[1] = tested on: aortic smooth muscle cells of rats; assay: Secretion of osteopontin protein into conditioned medium from aortic smooth muscle cells of rats (Western blotting); assay type: cell-based, rat; settings: normal glucose; pitavastatin calcium 0.03 and 0.3 μM, atorvastatin 0.3 and 3 μM; 48 hours; FIG. 1
Description: The effect of pitavastatin calcium and atorvastatin on the secretion of osteopontin protein into the conditioned culture medium from aortic smooth muscle cells of rats cultured under the normal glucose concentration were measured according to the method described below.
At first, aortic smooth muscle cells of rats (5 to 10 passage culture) were seeded in a 6-well culture plate and the confluent cultures were attained by culturing in low glucose (1000 mg/L) Dulbecco's modified Eagle's medium (DMEM) with 10% fetal bovine serum (FBS: BioWhittaker Co. Ltd.) under 5% CO2 atmosphere at 37° C. […]
After centrifugation, sedimented DE52 gels were washed several times with the same buffer, and 60 μL of 0.2M Tris hydrochloride buffer solution (pH 6.8) containing 5% of 2-mercaptoethanol, 4% of SDS, […], 20% of glycerol and 0.01% of bromophenol blue was added, and heat-treated for 5 minutes at 95° C. […] Chemiluminescences were detected on X-ray film using ECL™ (Amersham Pharmacia Biotech Co. Ltd.). The density of the bands were analyzed according to NIH Image. […]
The density of osteopontin protein measured with NIH Image Analysis for various concentration of pitavastatin calcium are shown in FIG. 1(a), and the density of osteopontin protein measured with NIH Image Analysis for various concentration of atorvastatin are shown in FIG. 1(b).

[2] = tested on: aortic smooth muscle cells of rats; assay: Expression of osteopontin mRNA in aortic smooth muscle cells of rats, with or without mevalonic acid (northern blotting); assay type: cell-based, rat; settings: FIG. 2(a)
Description: (§1) The effect of mevalonic acid on the suppression with pitavastatin calcium for the expression of osteopontin mRNA and the secretion of osteopontin protein in aortic smooth muscle cells of rats were measured according to the method described below.
(§2) Aortic smooth muscle cells of rats (5 to 10 passage culture) were seeded in a 6-well culture plate and the confluent cultures were attained by culturing in low glucose (1000 mg/L) DMEM with 10% FBS under 5% CO2 atmosphere at 37° C. Thereafter, the medium was replaced with the medium with pitavastatin calcium (8 μM) and/or mevalonic acid (100 μM), and the cells were cultured for another 48 hours. The medium was again replaced with 1.5 mL of FBS-free medium per well, and the cells were cultured further for 48 hours.
After the cultivation, the cells adhered to the culture plate were homogenized together with ISOGEN, RNA were extracted exactly as in Example 1, and the amount of osteopontin mRNA was analyzed by northern blotting method.
(§3) The above measurements were carried out in the three cases when pitavastatin calcium and mevalonic acid were not added, when only pitavastatin calcium was added, and when both pitavastatin calcium and mevalonic acid were added.

[3] = tested on: aortic smooth muscle cells of rats; assay: Secretion of osteopontin protein from aortic smooth muscle cells of rats, with or without mevalonic acid (western blotting); assay type: cell-based, rat; settings: FIG. 2(b)
Description: as §1, §2
At the same time, the conditioned medium was collected, osteopontin protein was absorbed on DE52, subjected to electrophoresis exactly as in Example 2, and the amount of the secreted osteopontin protein was analyzed by western blotting method.
as §3

osteopontin mRNA = assay: Expression of osteopontin mRNA in the kidney and blood vessels of STZ-induced diabetic rats and normal rats (Northern blotting); assay type: in vivo, rat; settings: for Kidney OPNmRNA/18S / Aorta OPNmRNA/18S / Aorta % Inhibition / Kidney % Inhibition: oral 3 mg/kg once a day, 7 days; for Kidney OPNmRNA/18S / Aorta OPNmRNA/18S: mean ± standard deviation, 3 mg/kg
Description: The effects of pitavastatin calcium on the expression of osteopontin mRNA in the kidney and blood vessels of STZ-induced diabetic rats were investigated according to the method described below.
Namely, 35 mg per kg of body weight of STZ dissolved in the concentration of 50 mg/mL of physiological saline was injected into the tail vein of male Wistar rats (body weight: about 300 g), and the animals were orally administered 1 mL/kg of body weight of 0.5% carboxymethylcellulose solution containing the test drug (pitavastatin calcium) in the concentration of 3mg/mL with a gastric sonde. Thereafter the oral administration was performed once a day by same volume and at fixed time during the experiment. The same volume of only 0.5% carboxymethylcellulose was given by the forced oral administration for the control group. The venous blood was withdrawn from the tail vein on the second day of the experiment and the presence of 200 mg/dL or above of the blood sugar level was confirmed.
24 hours after 7 days administration, the blood was withdrawn under the ether anesthesia, and kidneys and thoracic aorta were isolated. The predetermined amount of the tissue piece in ISOGEN (Wako Pure Chemicals K.K.) was homogenized in a polytron homogenizer and the total RNA was extracted. The total RNA thus obtained was precipitated by using isopropanol. The precipitate was washed with 70% ice cold ethanol and stored at −80° C. in 70% ethanol.
Osteopontin mRNA in the total RNA obtained was detected by the conventional Northern blotting method. That is to say that the total RNA precipitated with 70% ethanol was subjected to centrifugation at 15000 rpm, the precipitate was dried at room temperature after decanting the supernatant and dissolved in a small amount of TE buffer (10 mM Tris-HCl buffer-1 mM EDTA solution). 10 μL out of the solution thus obtained was diluted with 990 μL of TE buffer solution, and the amount of RNA was calculated by measuring the absorbance at 260 nm ultraviolet light of the solution. 40% solution of deionized glyoxal (3.5 μL), 0.1 M of NaHPO4 buffer solution (2.4 μL) and dimethylsulfoxide (11.8 μL) were added to the predetermined amount (10 or 20 μg) of the total RNA (final volume: 6 μL), heated at 50° C. for 1 hour and the total RNA was denatured. 6.3 μL of 10 mM sodium phosphate buffer solution (pH: 6.8) containing 50% glycerol and 0.4% bromophenol blue was added to the solution after the solution was cooled to the room temperature, and then RNA was subjected to electrophoresis using 1.5% agarose gel. RNA was blotted from agarose to nylon membrane in a conventional fashion by using 20×saline-sodium citrate (SSC). The blotted nylon membrane was washed with 2×SSC, and RNA was fixed on the nylon membrane by heating it to 80° C. in vacuo. DNA fragment encoding osteopontin was digested from pCRIIrOP vector with Eco R1 endonuclease and purified with Probe Quant™G-50 Micro Columns (Amersham Pharmacia Biotech Co. Ltd.). DNA fragment encoding Osteopontin thus obtained was hybridized for overnight together with the nylon membrane at 65° C. with Rediprime™ II (Amersham Pharmacia Biotech Co. Ltd.) radioactive probe labeled with ^32P radioisotope. Radioisotope level of the probe bound to the nylon membrane was detected on the X-ray film and the density of the bands were analyzed according to NIH Image. […] was used as the RNA internal standard and the amount of the expression was represented with the comparative intensities of the density of the bands. Osteopontin mRNA was similarly measured in the normal rat experiment.
In Table 1, OPN mRNA/18S represents the ratio of the density of osteopontin mRNA to the density of […] based on the NIH Image Analysis and % inhibition represents that to the respective control groups. The values of OPNmRNA/18S are mean ± standard deviation.

[4] = pitavastatin calcium 8 μM alone, 48 hours
[5] = pitavastatin calcium 8 μM with addition of mevalonic acid 100 μM
[6] = STZ-induced diabetic rats with drug administration, versus diabetic control
[7] = healthy rats with drug administration, versus healthy control
[8] = rats with drug administration, listed as Pitavastatin calcium

Row | Molecule | Amount of the secretion of osteopontin protein into the conditioned medium [1] | Expression of osteopontin mRNA (ratio to 18S) [2, 4] | Suppressive effect on the expression of osteopontin mRNA [2, 5] | Secretion of osteopontin protein [3, 4] | Suppressive effect on the secretion of osteopontin protein [3, 5] | Kidney OPNmRNA/18S (osteopontin mRNA; STZ-induced diabetic rats with drug administration, p = 0.016 vs control) | Kidney OPNmRNA/18S (osteopontin mRNA; STZ-induced diabetic rats with drug administration, p = 0.016 vs control, listed as Pitavastatin calcium) | Aorta OPNmRNA/18S (osteopontin mRNA; STZ-induced diabetic rats with drug administration, p = 0.036 vs control) | Aorta OPNmRNA/18S (osteopontin mRNA; STZ-induced diabetic rats with drug administration, p = 0.036 vs control, listed as Pitavastatin calcium) | Aorta % Inhibition (osteopontin mRNA; [6]) | Kidney % Inhibition (osteopontin mRNA; [6]) | Influence on the expression of osteopontin in the kidney and the aorta (osteopontin mRNA; healthy rats) | Aorta % Inhibition (osteopontin mRNA; [7]) | Kidney % Inhibition (osteopontin mRNA; [7]) | Aorta OPNmRNA/18S (osteopontin mRNA; rats with drug administration) | Kidney OPNmRNA/18S (osteopontin mRNA; rats with drug administration) | Aorta OPNmRNA/18S (osteopontin mRNA; [8]) | Kidney OPNmRNA/18S (osteopontin mRNA; [8])
1 | CC(C)c1c(C(=O)Nc2ccccc2)c(-c2ccccc2)c(-c2ccc(F)cc2)n1CC[C@@H](O)C[C@@H](O)CC(=O)O [atorvastatin] | inhibited with the statistical significance |  |  |  |  |  |  |  |  |  |  |  |  |  |  |  |  | 
2 | (+)-bis{(3R, 5S, 6E)-7-[2-cyclopropyl4-(4-fluorophenyl)-3-quinolyl]-3,5-dihydroxy-6-heptenoic acid}-calcium [pitavastatin calcium] | inhibited with the statistical significance | suppresses | disappear | suppresses | disappear | 1.933 ± 0.874 | 1.933 | 1.300 | 1.300 | 59.4% | 40.2% | did not influence | −1.4% | −24.1% | 2.433 ± 0.929 | 1.667 ± 0.321 | 2.433 | 1.667

— US20040087597A1, “Preventives and remedies for complications of diabetes” (priority 2000, published 2004)
